Assay [1] addresses HDAC2 (Homo sapiens, UniProt Q92769). The experiment in a line: Immunoblot HDAC2 degradation in MM.1S cell lysates. To be noted: MM1.S, MM.1S cells, 24 h, read-out: maximal degradation (Dmax) HDAC2. Details: endogenous in cells; host or cells: MM.1S. The assay is classed as cell-based. The protocol:
(§1) Figure 6 Examination of HDAC isoform degradation. MM.1S cells were treated with the indicated compounds (10 μM) or vehicle (DMSO) for 24 h. HDAC1, 2, 4, and 6 levels were analyzed by immunoblotting. (A) Representative images from a total of n=3 biological replicates. […]
(§2) The cell lysis was performed as descripted in 3.2. Simple Western Immunoassay. Samples were denatured by Laemmli 2× Concentrate (Catalog# S3401-10VL, Sigma-Aldrich) for 5 min at 95 °C, and Precision Plus Protein Unstained Standard was used as molecular weight marker (Catalog# 1610363, Bio-Rad, Hercules, CA, USA). SDS-PAGE was performed with 10 or 12% Mini-PROTEAN TGX Stain-Free Gel (Catalog# 458035, Bio -Rad) at 200 V for 50 min (Catalog# 458035, Bio -Rad).
(§3) Afterwards, proteins were transferred with the Trans -Blot Turbo Transfer System (Catalog# 1704150, Bio-Rad) to Immobilon-FL PVDF membranes (Catalog# IPFL00005, Mill ipore Merck, Burlington, MA, USA) at 1.0 A for 30 min and treated with 5% milk-powder solution for 1 h at room temperature under slight agitation. […] The ChemiDoc XRS+ System (Catalog# 1708265 , Bio-Rad) was used for detection and Image Lab Software 6.1 (Bio-Rad) for quantification. […]
For orientation: A western blot detects proteins with antibodies after separation by electrophoresis.

Assay [2] has as its target HDAC4 (Homo sapiens, UniProt P56524). In words: Immunoblot HDAC4 degradation in MM.1S cell lysates. Details: endogenous in cells; host or cells: MM.1S. To be noted: MM1.S, MM.1S cells, 24 h, read-out: maximal degradation (Dmax) HDAC4. The assay is classed as cell-based. The protocol: as §1, §2, §3

HDAC2, sequence (Q92769 whole entry, canonical isoform): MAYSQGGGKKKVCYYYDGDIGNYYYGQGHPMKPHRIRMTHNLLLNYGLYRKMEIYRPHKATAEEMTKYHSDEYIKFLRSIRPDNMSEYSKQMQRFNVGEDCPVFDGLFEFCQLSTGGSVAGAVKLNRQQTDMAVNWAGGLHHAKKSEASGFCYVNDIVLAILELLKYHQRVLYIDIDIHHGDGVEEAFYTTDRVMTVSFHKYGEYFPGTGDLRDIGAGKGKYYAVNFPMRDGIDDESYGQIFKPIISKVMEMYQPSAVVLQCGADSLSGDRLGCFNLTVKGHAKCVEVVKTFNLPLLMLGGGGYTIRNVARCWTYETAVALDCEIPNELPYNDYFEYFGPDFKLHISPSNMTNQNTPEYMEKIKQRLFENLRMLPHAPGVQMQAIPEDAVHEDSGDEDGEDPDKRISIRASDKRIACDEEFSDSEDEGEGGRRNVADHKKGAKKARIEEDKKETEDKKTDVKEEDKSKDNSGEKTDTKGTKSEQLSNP
HDAC4, sequence (P56524 whole entry): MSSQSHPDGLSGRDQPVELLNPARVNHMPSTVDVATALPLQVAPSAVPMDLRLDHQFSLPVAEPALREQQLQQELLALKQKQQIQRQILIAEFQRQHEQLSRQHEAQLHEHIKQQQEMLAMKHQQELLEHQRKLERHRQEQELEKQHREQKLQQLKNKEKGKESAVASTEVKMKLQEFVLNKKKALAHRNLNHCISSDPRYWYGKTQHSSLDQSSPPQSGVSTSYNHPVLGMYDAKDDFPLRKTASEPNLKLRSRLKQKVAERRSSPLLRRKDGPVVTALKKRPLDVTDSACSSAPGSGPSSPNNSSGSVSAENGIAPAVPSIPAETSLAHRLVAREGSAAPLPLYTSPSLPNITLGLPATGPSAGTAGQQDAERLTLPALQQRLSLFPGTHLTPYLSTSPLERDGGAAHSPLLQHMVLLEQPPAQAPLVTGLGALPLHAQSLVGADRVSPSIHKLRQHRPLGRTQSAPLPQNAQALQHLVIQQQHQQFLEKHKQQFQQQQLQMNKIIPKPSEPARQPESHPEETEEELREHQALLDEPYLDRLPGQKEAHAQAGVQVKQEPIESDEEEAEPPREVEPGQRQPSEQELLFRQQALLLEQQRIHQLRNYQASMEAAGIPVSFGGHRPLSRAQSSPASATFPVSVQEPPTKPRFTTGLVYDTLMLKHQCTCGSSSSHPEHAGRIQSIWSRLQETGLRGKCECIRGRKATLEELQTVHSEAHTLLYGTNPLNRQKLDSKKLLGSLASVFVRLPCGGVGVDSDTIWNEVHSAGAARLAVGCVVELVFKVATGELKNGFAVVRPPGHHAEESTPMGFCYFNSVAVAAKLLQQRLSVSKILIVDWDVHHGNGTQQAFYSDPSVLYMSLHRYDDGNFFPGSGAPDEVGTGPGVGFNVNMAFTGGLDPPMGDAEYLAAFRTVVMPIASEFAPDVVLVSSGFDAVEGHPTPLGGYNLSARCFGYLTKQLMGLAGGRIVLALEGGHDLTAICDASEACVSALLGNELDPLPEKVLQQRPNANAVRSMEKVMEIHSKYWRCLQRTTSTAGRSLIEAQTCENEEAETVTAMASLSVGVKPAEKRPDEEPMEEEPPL

Broadly, the Dmax is the greatest extent of degradation seen. `O=C(CCCCCCNC(=O)c1ccc(NC(=O)CCCCCCCCCCCN(C(=O)CCl)C(C(=O)NCc2ccccc2)c2ccc(Cl)c(Cl)c2)cc1)NO` (stereo not shown) [Compound 1j]: the Dmax at 10 µM in assay [1] and in assay [2] was 71 to 76% in each case.
On to `O=C(CCCCCCNC(=O)c1ccc(N(C(=O)CCl)C(C(=O)NCc2ccccc2)c2ccc(Cl)c(Cl)c2)cc1)NO` (stereo not shown) [Compound 2], for which the Dmax at 10 µM worked out at 51% in assay [1] and 40% in assay [2].

The values are drawn from paper PMC12091851, “Replacing a Cereblon Ligand by a DDB1 and CUL4 Associated Factor 11 (DCAF11) Recruiter Converts a Selective Histone Deacetylase 6 PROTAC into a Pan‐Degrader” (Chemmedchem, 2025).
